US20100267561A1, “HERBICIDAL PYRIDAZINONE DERIVATIVES” (priority 2007, published 2010)

System: spring barley (Hordeum vulgare)
Test: Test C pre-/postemergence plant response
Format: in vivo
In short: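 Test chemicals in a non-phytotoxic solvent with surfactant were applied preemergence, and some were also applied postemergence to plants 2–18 cm tall (1- to 4-leaf stage). Visual ratings against controls were made after 15–25 days in a controlled environment, on a 0–100 scale where 100 means complete control.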

[1] = Preemergence, 8 g ai/ha, scale 0 to 100 (0 no effect, 100 complete control)
[2] = Preemergence, 16 g ai/ha, scale 0 to 100 (0 no effect, 100 complete control)
[3] = Preemergence, 31 g ai/ha, scale 0 to 100 (0 no effect, 100 complete control)
[4] = Preemergence, 62 g ai/ha, scale 0 to 100, 0 no effect, 100 complete control
[5] = Postemergence, 8 g ai/ha, scale 0 to 100, 0 no effect, 100 complete control
[6] = Postemergence, 16 g ai/ha, scale 0 to 100, 0 no effect, 100 complete control
[7] = Postemergence, 31 g ai/ha, scale 0 to 100, 0 no effect, 100 complete control
[8] = Postemergence, 62 g ai/ha, scale 0 to 100, 0 no effect, 100 complete control

Structure (SMILES)	Plant response rating, Barley, Spring [1]	Plant response rating, Barley, Spring [2]	Plant response rating, Barley, Spring [3]	Plant response rating, Barley, Spring [4]	Plant response rating, Barley, Spring [5]	Plant response rating, Barley, Spring [6]	Plant response rating, Barley, Spring [7]	Plant response rating, Barley, Spring [8]
Cc1cc(-c2ccc(Cl)cc2)nn1-c1c(OS(=O)(=O)c2ccccc2[N+](=O)[O-])cnn(C)c1=O [Compound 51]	0	15	20	70	–	–	–	–
CCc1cc(-c2ccc(F)cc2)nn1-c1c(O)cnn(C)c1=O [Compound 25]	0	0	0	0	0	0	0	–
CCc1c(C)c(-c2ccc(Cl)cc2)nn1-c1c(O)cnn(C)c1=O [Compound 26, 4-[3-(4-chlorophenyl)-5-ethyl-4-methyl-1H-pyrazol-1-yl]-5-hydroxy-2-methyl-3(2H)-pyridazinone]	0	0	25	35	0	0	35	50
C#CCOC(=O)Oc1cnn(C)c(=O)c1-n1nc(-c2ccc(Cl)cc2)cc1C [Compound 58]	0	0	10	75	–	–	–	–
Cc1cc(-c2ccc(Cl)cc2)nn1-c1c(OC(=O)c2ccccc2)cnn(C)c1=O [Compound 48]	0	15	30	80	–	–	–	–
CCc1cc(-c2ccc(Cl)c(Cl)c2)nn1-c1c(O)cnn(C)c1=O [Compound 20]	–	–	–	–	0	25	25	50
